Results reported in patent US20070015833A1 (priority 2005, published 2007).

Experiment: small volume in vitro release in 50 ml 0.1N HCl
Assay type: physicochemical
Details: 37° C., 150 rpm
Protocol: The formulations were tested for their small volume in vitro release characteristics in 50 ml 0.1N HCl at 37° C. and 150 rpm using the following procedure: III. Instrumentation (or Equivalent) a. Automated Dissolution System comprising of: Hanson SR8 Plus Test Station Hanson Auto Plus Maximiser System Controller Hanson Auto Plus MultiFill Fraction Collector b. HPLC System comprising of: pump—Merck Hitachi L-7100 autoinjector—Merck Hitachi L-7200 column oven—Merck Hitachi L-7300 detector—Merck Hitachi L-7400 interface and integration software—Merck Hitachi D-7000
0.1N HCl Preparation Dilute 8.5 ml HCl 37% to 1 liter with purified water. Procedure Place one weighed capsule in each vessel containing 0.1N HCl and immediately operate the apparatus for 30 min. Unless otherwise specified, 3 ml samples are withdrawn from each vessel and immediately filtered through PTFE membranes at 15 and 30 min.
The small volume was chosen as a model of the conditions in a fasted stomach.

For CC(C)OC(=O)C(C)(C)Oc1ccc(C(=O)c2ccc(Cl)cc2)cc1 [Micronized Fenofibrate], the “dissolution (in words)” value was “no dissolution at all”, the “% dissolved 15 min” value (15 min) was 0% and the “% dissolved 30 min” value (30 min) was 0%.
